In patent US9161986B2, “Nanoparticle containing prostaglandin I2 derivative” (LTT BIO-PHARMA CO., LTD., priority 2011, dated 2015):

Assays:
[1] = system: primary pulmonary hypertension; conditions: primary pulmonary hypertension group treated with epoprostenol; previous studies; cited from earlier work
[2] = measure of chemical stability; cited from earlier work
[3] = Formation of insoluble complex in presence or absence of ferric chloride; format: physicochemical; conditions: various amounts of diethanolamine
Description: To confirm this, the pH change of the solution and the percentage of beraprost sodium remaining in its supernatant when various amounts of diethanolamine (DEA) was added to the solution in the presence or absence of ferric chloride were examined.
Specifically, the pH of the solution was adjusted by adding diethanolamine to the aqueous solution of an iron ion of a specific concentration (455 mM) and beraprost sodium (32.5 mM) so that various pHs of the solution were obtained. The solution (suspension) was centrifuged at 16,500 g for 10 minutes, and the amount of beraprost sodium dissolved in the supernatant was determined by HPLC. The pH of the solution was also measured.
On the other hand, the pH of the solution was adjusted by adding diethanolamine to the aqueous solution of beraprost sodium (32.5 mM) in which hydrochloric acid was used instead of an iron ion of a specific concentration so that various pHs of the solution were obtained. The solution (suspension) was centrifuged at 16,500 g for 10 minutes, and the amount of beraprost sodium dissolved in the supernatant was determined by HPLC. The pH of the solution was also measured.

[4] = Evaluation of drug retention in blood after intravenous administration; format: in vivo, male Wister rats; conditions: intravenous via tail vein, rats, n=3; FIG. 5
Description: Either beraprost sodium nanoparticles or beraprost sodium (comparative example) was administered to male Wister rats (5 week old, n=3) intravenously via a tail vein. After administration, a tail vein different from the administration site was cut with a scalpel at specified times, and blood samples were collected by using blood collection tubes (heparin-treated). A sample solution was prepared by adding 50 μL, of the blood to a microfuge tube containing 1,4-dioxane (150 μL). The sample solution was centrifuged (13,200 rpm, 4° C., and 10 minutes), and then, beraprost sodium contained in the supernatant was determined by HPLC.

cAMP = assay: Continuous increase of plasma cAMP after intravenous administration (cAMP ELISA); format: in vivo, male Wister rats; conditions: intravenous via tail vein, rats, n=2; FIG. 6
Description: Prostacyclin leads to relaxation of vascular smooth muscle and exerts a dilation effect on a pulmonary vessel by activating adenyl cyclase via a prostacyclin receptor on the vascular smooth muscle and increasing the concentration of cAMP. Therefore, the present inventors investigated whether cAMP increased continuously when the beraprost sodium-containing nanoparticle of the present invention was administered. Either beraprost sodium-containing nanoparticles or beraprost sodium (comparative example) was administered to male Wister rats (5 week old, n=2) intravenously via a tail vein. After administration, a tail vein different from the administration site was cut with a scalpel at specified times, and blood samples were collected by using blood collection tubes. […] This blood plasma sample was diluted as appropriate and cAMP contained in the […] was determined by using a cAMP ELISA kit. The method of measurement followed the protocol made by Assay Designs Inc.

[5] = system: pulmonary vascular resistance; conditions: treatment for three months, clinical trials; cited from earlier work
[6] = in vivo; cited from earlier work
[7] = oral; cited from earlier work

SMILES	three-year survival rate [1]	chemical half-life [2]	formation of insoluble complex ([3]; in the absence of ferric chloride (hydrochloric acid instead), FIG. 3)	formation of insoluble complex ([3]; in the presence of ferric chloride, FIG. 2)	drug retention in the blood [4]	continuous increase of cAMP in the plasma (cAMP)	pulmonary vascular resistance [5]	biological half-life [6]	half-life of the blood concentration [7]
CCCCC[C@H](O)/C=C/[C@@H]1[C@H]2C/C(=C/CCCC(=O)O)O[C@H]2C[C@H]1O [epoprostenol]	about 70%	about 10 minutes							
CC#CCC(C)[C@H](O)/C=C/[C@@H]1[C@H]2c3cccc(CCCC(=O)[O-])c3O[C@H]2C[C@H]1O.[Na+] (stereo partly drawn) [beraprost sodium]			no insoluble complex was formed	formation of an insoluble complex	little beraprost sodium existed in the blood as early as 3 hours after its administration	no continuous increase of cAMP was observed	significantly decreased the pulmonary vascular resistance	about 1.1 hours	1.1 h
